Species: Rattus norvegicus
Assay: Open TG-GATES - Regimen: Single
Format: toxicity, organism-based, Sprague-Dawley
Design: regimen Single, gender Male, age 6 weeks
Conditions: in vivo, po, 15 mg/kg, route gavage, dose level Low; for APTT / Bas / Eos / Fbg / Hb / Ht / Lym / MCH / MCHC / MCV / Mono / Neu / PT / Plat / RBC / Ret / WBC: tissue Blood; for KIDNEY_L / KIDNEY_R / KIDNEY_TOTAL: tissue Kidney; for LIVER: tissue Liver; for A/G / ALP / ALT / AST / BUN / CRE / Ca / Cl / DBIL / GLC / IP / K / LDH / Na / PL / RALB / TBIL / TC / TG / TP / gamma-GTP: tissue Plasma

For CC1=C(CC(=O)O)c2cc(F)ccc2/C1=C\c1ccc([S+](C)[O-])cc1 (configuration not stated), the TERMINAL_BW (3 h) was 200.6 g, the APTT (3 h) was 22.7 s and the Bas (3 h) was 0%. The Eos (3 h) was 1%, the Fbg (3 h) was 290.6 mg/dL and the Hb (3 h) was 13.4 g/dL. For the same compound, the Ht (3 h) was 40.8%, the Lym (3 h) was 74.8% and the MCH (3 h) was 21.4 pg. It also gave an MCHC (3 h) of 32.8%, an MCV (3 h) of 65.3 fL and a Mono (3 h) of 3%. The Neu (3 h) was 21%, the PT (3 h) was 14 s and the Plat (3 h) was 130.1 x10_4/uL. The RBC (3 h) was 625.6 x10_4/ul, the Ret (3 h) was 8.8% and the WBC (3 h) was 78.5 x10_2/uL. The KIDNEY_L (3 h) was 1 g, the KIDNEY_R (3 h) was 0.9 g and the KIDNEY_TOTAL (3 h) was 1.9 g. It also gave an LIVER (3 h) of 9.3 g, an A/G (3 h) of 0.9 and an ALP (3 h) of 1384.2 IU/L. It also gave an ALT (3 h) of 40.4 IU/L, an AST (3 h) of 69.6 IU/L and a BUN (3 h) of 11 mg/dL. It also gave a CRE (3 h) of 0.2 mg/dL, a Ca (3 h) of 10.9 mg/dL and a Cl (3 h) of 105 meq/L. For the same compound, the DBIL (3 h) was 0.01 mg/dL, the GLC (3 h) was 173.2 mg/dL and the IP (3 h) was 8.4 mg/dL. It also gave a K (3 h) of 4 meq/L, an LDH (3 h) of 66.8 IU/L and a Na (3 h) of 140.8 meq/L. The PL (3 h) was 140.6 mg/dL, the RALB (3 h) was 2.6 g/dL and the TBIL (3 h) was 0.036 mg/dL. It also gave a TC (3 h) of 71.2 mg/dL, a TG (3 h) of 65.6 mg/dL and a TP (3 h) of 5.3 g/dL. The gamma-GTP (3 h) was 1 IU/L, the TERMINAL_BW (6 h) was 201 g and the APTT (6 h) was 16.5 s. The Bas (6 h) was 0%, the Eos (6 h) was 1% and the Fbg (6 h) was 279.2 mg/dL. The Hb (6 h) was 13.5 g/dL, the Ht (6 h) was 41.4% and the Lym (6 h) was 74%. It also gave an MCH (6 h) of 20.8 pg, an MCHC (6 h) of 32.6% and an MCV (6 h) of 63.7 fL. For the same compound, the Mono (6 h) was 2.4%, the Neu (6 h) was 22.4% and the PT (6 h) was 14.1 s. It also gave a Plat (6 h) of 115.6 x10_4/uL, an RBC (6 h) of 650.4 x10_4/ul and a Ret (6 h) of 8.1%. For the same compound, the WBC (6 h) was 70.2 x10_2/uL, the KIDNEY_L (6 h) was 0.9 g and the KIDNEY_R (6 h) was 0.9 g. The KIDNEY_TOTAL (6 h) was 1.7 g, the LIVER (6 h) was 8.2 g and the A/G (6 h) was 1. It also gave an ALP (6 h) of 1365.6 IU/L, an ALT (6 h) of 41.4 IU/L and an AST (6 h) of 72.4 IU/L. The BUN (6 h) was 9 mg/dL, the CRE (6 h) was 0.2 mg/dL and the Ca (6 h) was 10.8 mg/dL. For the same compound, the Cl (6 h) was 106.8 meq/L, the DBIL (6 h) was 0.006 mg/dL and the GLC (6 h) was 172.8 mg/dL. For the same compound, the IP (6 h) was 9.3 mg/dL, the K (6 h) was 4.3 meq/L and the LDH (6 h) was 73.2 IU/L. The Na (6 h) was 141.4 meq/L, the PL (6 h) was 137.6 mg/dL and the RALB (6 h) was 2.5 g/dL. For the same compound, the TBIL (6 h) was 0.03 mg/dL, the TC (6 h) was 78.6 mg/dL and the TG (6 h) was 40 mg/dL. It also gave a TP (6 h) of 5.2 g/dL, a gamma-GTP (6 h) of 1.4 IU/L and a TERMINAL_BW (9 h) of 198.6 g. The APTT (9 h) was 16.9 s, the Bas (9 h) was 0% and the Eos (9 h) was 0.8%. The Fbg (9 h) was 285.6 mg/dL, the Hb (9 h) was 13.2 g/dL and the Ht (9 h) was 40.7%. The Lym (9 h) was 81.4%, the MCH (9 h) was 21 pg and the MCHC (9 h) was 32.4%. It also gave an MCV (9 h) of 64.8 fL, a Mono (9 h) of 2% and a Neu (9 h) of 15.2%. For the same compound, the PT (9 h) was 14.2 s, the Plat (9 h) was 128.1 x10_4/uL and the RBC (9 h) was 627.6 x10_4/ul. The Ret (9 h) was 8.8%, the WBC (9 h) was 72.2 x10_2/uL and the KIDNEY_L (9 h) was 0.9 g. The KIDNEY_R (9 h) was 0.9 g, the KIDNEY_TOTAL (9 h) was 1.8 g and the LIVER (9 h) was 7.7 g. For the same compound, the A/G (9 h) was 0.9, the ALP (9 h) was 1238.2 IU/L and the ALT (9 h) was 43.4 IU/L. The AST (9 h) was 74.4 IU/L, the BUN (9 h) was 10.6 mg/dL and the CRE (9 h) was 0.2 mg/dL. The Ca (9 h) was 10.7 mg/dL, the Cl (9 h) was 108 meq/L and the DBIL (9 h) was 0.008 mg/dL. The GLC (9 h) was 173.6 mg/dL, the IP (9 h) was 9.9 mg/dL and the K (9 h) was 4.1 meq/L. For the same compound, the LDH (9 h) was 65.2 IU/L, the Na (9 h) was 142.2 meq/L and the PL (9 h) was 135.4 mg/dL. For the same compound, the RALB (9 h) was 2.5 g/dL, the TBIL (9 h) was 0.042 mg/dL and the TC (9 h) was 76.2 mg/dL. The TG (9 h) was 37.6 mg/dL, the TP (9 h) was 5.2 g/dL and the gamma-GTP (9 h) was 1 IU/L. It also gave a TERMINAL_BW (24 h) of 215 g, an APTT (24 h) of 22.5 s and a Bas (24 h) of 0%. For the same compound, the Eos (24 h) was 1%, the Fbg (24 h) was 310.4 mg/dL and the Hb (24 h) was 14 g/dL. For the same compound, the Ht (24 h) was 43.7%, the Lym (24 h) was 77.4% and the MCH (24 h) was 21 pg. For the same compound, the MCHC (24 h) was 32%, the MCV (24 h) was 65.8 fL and the Mono (24 h) was 2.2%. It also gave a Neu (24 h) of 19%, a PT (24 h) of 13.3 s and a Plat (24 h) of 125.4 x10_4/uL. It also gave an RBC (24 h) of 665.4 x10_4/ul, a Ret (24 h) of 7.7% and a WBC (24 h) of 81.5 x10_2/uL. For the same compound, the KIDNEY_L (24 h) was 0.9 g, the KIDNEY_R (24 h) was 0.9 g and the KIDNEY_TOTAL (24 h) was 1.8 g. The LIVER (24 h) was 10.4 g, the A/G (24 h) was 0.9 and the ALP (24 h) was 1898.6 IU/L. For the same compound, the ALT (24 h) was 48 IU/L, the AST (24 h) was 70.2 IU/L and the BUN (24 h) was 15.4 mg/dL. It also gave a CRE (24 h) of 0.2 mg/dL, a Ca (24 h) of 11.2 mg/dL and a Cl (24 h) of 104.6 meq/L. The DBIL (24 h) was 0.01 mg/dL, the GLC (24 h) was 189.6 mg/dL and the IP (24 h) was 7.4 mg/dL. It also gave a K (24 h) of 4.2 meq/L, an LDH (24 h) of 90.8 IU/L and a Na (24 h) of 141 meq/L. For the same compound, the PL (24 h) was 176.4 mg/dL, the RALB (24 h) was 2.7 g/dL and the TBIL (24 h) was 0.014 mg/dL. It also gave a TC (24 h) of 95 mg/dL, a TG (24 h) of 134.8 mg/dL and a TP (24 h) of 5.7 g/dL. It also gave a gamma-GTP (24 h) of 1 IU/L.

Reference: ChEMBL document CHEMBL3885861, “Open TG-GATES”
